Entries after “also recorded” stand apart in the source; their conditions may differ. Read-outs that look alike come from different tables or passages of the source.
Assays:
hCatS = hCatS (Homo sapiens, UniProt P25774); test: In vitro inhibition of purified human Cathepsin S (Z-FVR-AMC); type: biochemical; conditions: 30 min incubation with inhibitor, mean ± SD, triplicate
Description: (§1) Cathepsin (e.g. Cathepsin K/L/V/S/B), in particular purified human Cathepsin, was diluted in freshly prepared reaction buffer consisting of 50 mM MES pH 5.5, 25 mM EDTA and 2.5 mM DTT. 0.05% Tween20 (v/v) may be added to the reaction buffer of the Cathepsin K.
(§2) Activity assays may be conducted in a suitable manner. In the experiments described herein, the assays were typically conducted in Corning 3820 Low Volume 384 Well Assay Plate with a final assay volume of 20 μL. Plates were shaken at 600 rpm for 1 minute and centrifuged at 1000 rpm for 1 minute prior to incubation. Cathepsin activity was quantified using synthetic fluorogenic peptide substrate Z-FR-AMC (Cath K, L, V), Z-RR-AMC (Cath B) or Z-FVR-AMC (Cath S). Fluorescence intensity (λex=350 nm, λem=440 nm) was measured every 2 minutes in arbitrary units (A.U.) on a CLARIOstar (BMG Labtech) microplate reader and values were converted to product formation [AMC]. […] Measurements were performed in triplicate.
(§3) Inhibitors (200 nL, 100× final concentration in DMSO) were diluted in reaction buffer (10 μL). Purified human Cathepsin (5 μL, 4× final concentration) was added and the reaction mixture was incubated for 30 min at room temperature. Fluorogenic substrate (5 μL, 4× final concentration) was added and fluorescence intensity was measured every 2 minutes for 30-90 minutes.
(§4) The potency of the compounds as CatK inhibitors was assessed in an in vitro inhibition assay on purified human CatK (Table 2). Cathepsin was incubated with inhibitor, and the hydrolysis of substrate was initiated by addition of substrate.

hCatK [1] = molecular target: T1, hCatK (Homo sapiens, UniProt P43235); test: In vitro inhibition of purified human Cathepsin K (fluorogenic substrate Z-FR-AMC); type: biochemical; conditions: for IC50: purified human Cathepsin, 30 min incubation with inhibitor, mean ± SD, triplicate
T1 sequence (P43235 115-329): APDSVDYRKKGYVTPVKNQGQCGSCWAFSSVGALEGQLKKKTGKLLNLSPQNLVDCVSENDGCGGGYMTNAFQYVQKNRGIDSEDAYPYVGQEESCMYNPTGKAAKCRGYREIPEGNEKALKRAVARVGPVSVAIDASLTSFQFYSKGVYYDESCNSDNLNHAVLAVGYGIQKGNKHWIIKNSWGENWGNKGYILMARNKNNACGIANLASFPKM
Description: as §1, §2, §3, §4

hCatV = hCatV (Homo sapiens, UniProt O60911); test: In vitro inhibition of purified human Cathepsin V (Z-FR-AMC); type: biochemical; conditions: 30 min incubation with inhibitor, mean ± SD, triplicate
Chain of hCatV (O60911 114-334): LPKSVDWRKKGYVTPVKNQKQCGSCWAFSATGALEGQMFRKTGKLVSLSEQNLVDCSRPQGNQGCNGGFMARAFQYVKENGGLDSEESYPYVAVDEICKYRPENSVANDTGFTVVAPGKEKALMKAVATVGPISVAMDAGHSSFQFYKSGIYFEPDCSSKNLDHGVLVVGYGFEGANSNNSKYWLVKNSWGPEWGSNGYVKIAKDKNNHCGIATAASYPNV
Description: as §1
as §2, with “In the experiments described herein, the assays were typically conducted in Corning 3820 Low Volume 384 Well Assay Plate with a final assay volume of 20 μL.” left out
as §3, §4

hCatL = hCatL (Homo sapiens, UniProt P07711); test: In vitro inhibition of purified human Cathepsin L (Z-FR-AMC); type: biochemical; conditions: 30 min incubation with inhibitor, mean ± SD, triplicate
Chain of hCatL (P07711 114-333): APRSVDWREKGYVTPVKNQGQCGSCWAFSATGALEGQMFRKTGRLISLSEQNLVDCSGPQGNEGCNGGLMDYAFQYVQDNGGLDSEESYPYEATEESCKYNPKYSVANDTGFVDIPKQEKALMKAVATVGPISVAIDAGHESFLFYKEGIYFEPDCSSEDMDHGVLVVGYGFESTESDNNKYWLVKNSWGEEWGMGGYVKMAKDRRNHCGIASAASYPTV
Description: as §1
as §2, with “In the experiments described herein, the assays were typically conducted in Corning 3820 Low Volume 384 Well Assay Plate with a final assay volume of 20 μL.” left out
as §3, §4

hCatB = hCatB (Homo sapiens, UniProt P07858); test: In vitro inhibition of purified human Cathepsin B (Z-RR-AMC); type: biochemical; conditions: 30 min incubation with inhibitor, mean ± SD, triplicate
Description: as §1
as §2, with “In the experiments described herein, the assays were typically conducted in Corning 3820 Low Volume 384 Well Assay Plate with a final assay volume of 20 μL.” left out
as §3, §4

Cathepsin K = molecular target: T2, Cathepsin K (Homo sapiens, UniProt P43235); test: LC-MS of intact CatK and CatK-inhibitor complexes; type: binding
T2 sequence (P43235 115-329): T1 sequence (P43235 115-329)
Description: The masses were determined from deconvoluted electrospray ionization mass spectra of CatK complexes. FIG. 4A to FIG. 4E each provide the result for a sample. In each of these FIGS. 4A to 4E the first panel provides the UPLC chromatogram, the second panel provides the electrospray ionization mass spectrum, and the third panel provides the corresponding deconvoluted electrospray ionization mass spectrum (average isotopes) with an indication of the measured mass of the predominant species. FIG. 4A provides the results obtained for intact CatK. FIG. 4B provides the results obtained for CatK.
Cathepsin K (3 μM) in reaction buffer ([…]) was incubated with inhibitor (100 μM) at 37° C. for 6 hours prior to analysis. 1 μL injections of the sample were made onto a XEVO-G2XSQTOF#YEA928 UPLC-MS system with a Waters Acquity CM detector. Chromatographic separation was carried out on a ACQUITY UPLC® Protein BEH C4 Column over a 12 minute gradient elution of 2% to 100% acetonitrile in water (0.1% formic acid) at a flow rate of 0.500 mL/min. For the first 4 minutes the flow was diverted to the waste to avoid contamination of the MS with high concentrations of buffer components. After 4 minutes, the elution flow was ionized with an ESI ionization source and measured on a XEVO-G2XSQTOF. The results were analyzed using MassLynx V4.1. The total mass of the complex was obtained by deconvolution of electrospray ionization mass spectrum envelope (average isotopes) with the MaxEnt1 function.
Cathepsin K was incubated with ODN, 4, 5 or 6 for 6 h to allow full covalent bond formation and submitted for measurement without any digestion steps, according to the method for LC-MS for intact CatK and CatK-inhibitor complexes described in the assays section above.

hCatK [2] = molecular target: T1, hCatK; test: Kinetic evaluation of covalent inhibitors on purified hCatK; type: biochemical; conditions: 100 pM hCatK, 4 μM Z-FR-AMC, 26° C., reaction started by addition of CatK; for Ki: read-out: Kl
Description: The reaction kinetics of irreversible covalent inhibitor compounds may be assed in the following manner. Inhibitors (200 nL, 100× final concentration in DMSO) were diluted in reaction buffer (10 μL). Fluorogenic substrate (5 μL, 4× final concentration) was added and the reaction was started by addition of Cathepsin (5 μL, 4× final concentration). Fluorescence intensity was measured every 2 minutes for 60 minutes and fitted to equation I to obtain the Kobs. The obtained values were plotted against the inhibitor concentration and fitted to equation II to obtain kinetic parameters Kinact (rate of covalent bond formation) and Ki.
Kinetic evaluation of irreversible covalent inhibitors was conducted by following the progress curve of inhibition when the hydrolysis of substrate is started by addition of the enzyme (instead of incubating the protease with the inhibitor prior to addition of the substrate). From this curve the maximum rate of covalent bond formation (Kinact) could be determined (Table 4).

hCatK [3] = molecular target: T1, hCatK; test: Jump dilution assay for reversibility of hCatK inhibition; type: biochemical; conditions: 300× dilution into fluorogenic substrate solution
Description: FIG. 3 provides a schematic overview of a jump dilution assay. A) Dose response curve for a 300-fold dilution of inhibitor concentration from full inhibition to full activity. B) Protocol and concentrations for incubation and dilution. C) Progress curves for hCatK proteolytic activity with inhibitor compounds ODN, 4, 5, 6 after dilution.
Reversibility of protease inhibition by an inhibitor may be assessed in a jump dilution assay. An exemplary jump dilution assay is provided in R. A. Copeland, A. Basavapathruni, M. Moyer, M. P. Scott, Anal. Biochem. 2011, 416, 206. In a jump dilution assay the protease (e.g. CatK) is incubated with inhibitor at high concentration to allow full active site occupation, and subsequently diluted, e.g. 300×, into fluorogenic substrate solution resulting in an inhibitor concentration corresponding with full protease activity. The hydrolysis of fluorogenic substrate is monitored over an extended time period, e.g. at least 60 minutes. […] The assay results may be compared with the results using a known irreversible inhibitor of the protease as a control. E-64 represents an established pan-Cathepsin irreversible inhibitor, suitable for use as a positive control with most cysteine protease Cathepsins.
Reversibility of hCatK inhibition was assessed in a jump dilution assay. Established pan-Cathepsin inhibitor E-64 was taken along as a control for irreversible inhibition. Purified hCatK was incubated with inhibitors at high concentration to allow full active site occupation, and subsequently diluted 300× into fluorogenic substrate solution resulting in an inhibitor concentration corresponding with full activity (FIG. 3).

Chain of hCatS (P25774 115-331): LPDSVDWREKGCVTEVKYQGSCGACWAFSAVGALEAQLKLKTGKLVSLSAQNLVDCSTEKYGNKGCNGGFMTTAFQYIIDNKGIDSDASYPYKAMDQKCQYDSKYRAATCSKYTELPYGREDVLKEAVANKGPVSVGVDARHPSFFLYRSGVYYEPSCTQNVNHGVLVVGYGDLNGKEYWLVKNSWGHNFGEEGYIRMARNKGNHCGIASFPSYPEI

SMILES | IC50 (hCatS) [nM] | IC50 (hCatK [1]) [nM] | IC50 (hCatV) [nM] | IC50 (hCatL) [nM] | IC50 (hCatB) [nM] | selectivity for CatK over structurally related human Cathepsins (hCatK [1]; in words, from Table 2) | formation of covalent CatK-inhibitor complex (Cathepsin K; 6 h incubation, intact protein LC-MS) | Measured mass complex (Cathepsin K; CatK 3 μM, inhibitor 100 μM, 37° C., 6 h, deconvoluted ESI mass) | kinact/Kl (hCatK [2]) [M⁻¹ s⁻¹] | Ki (hCatK [2]) [nM] | kinact (hCatK [2]; read-out: kinact (converted)) [s⁻¹] | reversibility of hCatK inhibition (hCatK [3]) | kinact (hCatK [2]) [s⁻¹]
CC(C)(F)C[C@H](N[C@@H](c1ccc(-c2ccc(S(C)(=O)=O)cc2)cc1)C(F)(F)F)C(=O)NCC#N [Compound 2, (S)—N-(cyanomethyl)-4-fluoro-4-methyl-2-(((S)-2,2,2-trifluoro-1-(4′-(methylsulfonyl)-[1,1′-biphenyl]-4-yl)ethyl)amino)pentanamide, reference compound] | 17.8 ± 0.303 | 0.57 ± 0.009 | 909 ± 105 | – | – | – | – | – | – | – | – | – | –
C#CC1(NC(=O)[C@H](CC(C)(C)F)N[C@@H](c2ccc(-c3ccc(S(C)(=O)=O)cc3)cc2)C(F)(F)F)CC1 [Compound 3, (S)—N-(1-ethynylcyclopropyl)-4-fluoro-4-methyl-2-(((S)-2,2,2-trifluoro-1-(4′-(methylsulfonyl)-[1,1′-biphenyl]-4-yl)ethyl)amino)pentanamide] | > 100000 | 26200 ± 2240 | > 100000 | > 100000 | > 100000 | – | – | – | – | – | – | – | –
CC(C)(F)C[C@H](N[C@@H](c1ccc(-c2ccc(S(C)(=O)=O)cc2)cc1)C(F)(F)F)C(=O)NCC#CBr [Compound 6, (S)—N-(3-bromoprop-2-yn-1-yl)-4-fluoro-4-methyl-2-(((S)-2,2,2-trifluoro-1-(4′-(methylsulfonyl)-[1,1′-biphenyl]-4-yl)ethyl)amino)pentanamide] | 55.4 ± 2.94 | 46.9 ± 1.81 | 16.2 ± 0.883 | 102 ± 5.14 | 98.6 ± 5.88 | all selectivity is lost | formation of a covalent hCatK—inhibitor complex; also recorded: covalent complex formed | 24296 | 1650 | 193 | 0.000317 | irreversible | –
CC(C)C[C@H](NC(=O)[C@H]1O[C@@H]1C(=O)O)C(=O)NCCCCN=C(N)N [Compound E-64, reference compound] | – | 1.9 ± 0.032 | – | 3.5 ± 0.22 | – | – | – | – | 117000 | 11.4 | – | – | 0.00135

From patent US12371400B2, “Cathepsin inhibitors” (ACADEMISCH ZIEKENHUIS LEIDEN (H.O.D.N. LUMC), priority 2017, dated 2025)
